Molecules are shown by their SMILES.

The subject of data set [1] is intra-abdominal adhesion formation. Nature of the data set: Intra-abdominal adhesion model (laparotomy, cecal abrasion, silicone patch), adhesion score. It is filed as in vivo, mice (C57BL/6). Conditions: for intra-abdominal adhesion score (total, 0-16): 10 days after surgery, oral treatment for 10 days from day of surgery, mean +/- SEM, control 13.6+/-0.49; for decrease of intra-abdominal adhesion formation: FIG. 2, versus control mice; for intra-abdominal adhesion score (total, 0-16), durability: treated for 10 days, observed an additional 25 days before sacrifice (day 35), control 13.4+/-1.0. The protocol: Seven to eight week-old male C57BL/6 mice (Jackson Laboratories, Bar Harbor, Me.) were housed five animals to a cage in a barrier room. Mice were acclimated to their environment for at least 72 hours prior to the initiation of each experiment and allowed food and water ad libitum. Animal protocols complied with the NIH Animal Research Advisory Committee guidelines and were approved by the Children's Hospital Institutional Animal Care and Use Committee. A standard adhesion model was performed as previously described (Chiang 2000). Specifically, a 5.0 mm×5.0 mm square piece of sterile silicone (Dow Corning, Midland, Mich.) was secured intra-abdominally to the right abdominal wall, lateral to the epigastric vessels, with two 7-0 proline sutures under isoflurane anesthesia. The cecum then was gently rubbed with two cotton swabs to promote adhesion formation.
After recovering from anesthesia, groups of mice were treated with either oral methylcellulose alone (100 μl, control) or an experimental drug mixed in 100 μl methylcellulose beginning on the day of surgery for 10 days. […] Mice treated with COX-2 selective inhibitors received either celecoxib (68 mg/kg orally twice a day) or rofecoxib (40 mg/kg orally once a day) (Laudanno 2001).
Ten and 35 days after surgery, mice were euthanized and adhesion formation over the silicone patch was measured by two blinded individuals based on a previously described scoring system (Chiang S, et al. J Ped Surg. 2000, 35, 189-196). The tenacity, type, and extent of adhesions to the patch, as well as the extent of adhesions to the cecum were graded on a scale of 0 to 4. The total adhesion score was the sum of the four individual scores (see table 1, below). A minimum score was 0 and the maximum score was 16. Tenacity was rated as none (0), adhesions fell apart (1), lysed with traction (2), lysed with blunt dissection (3), lysed with sharp dissection (4). Type was scored as none (0), filmy (1), mildly dense (2), moderately dense (3), very dense (4). Extent was measured as the percent of the patch covered by adhesion: 0% (0), <25% (1), 25-50% (2), 50-75% (3), >75% (4). Cecal adhesions were graded as none (0), adhesions fell apart (1), lysed with traction (2), lysed with blunt dissection (3), lysed with sharp dissection (4).

In data set [2] the test system is endothelium (CD31/PECAM-1) of granulation tissue. Nature of the data set: Microvessel density of granulation tissue surrounding the silicone patch (CD31 immunostaining, image analysis). It is filed as in vivo, mice (C57BL/6). Particulars: day 10; CD31-stained area as proportion of total area; mean ± SEM; control 6.4±0.6. The protocol: Silicone patches and abdominal wall were fixed at 4 degrees Celsius in 10% formalin overnight and washed with phosphate buffered saline. The specimens were then embedded in paraffin and 5 micron sections were cut. Endothelial cells were identified by antibody staining against the endothelial cell surface antigen CD31 (PECAM-1) and a diaminobenzidine chromogen (BD Biosciences Pharmingen, San Diego, Calif.). After deparaffinization and rehydration, sections were incubated with proteinase K (Roche, Basel, Switzerland) for 30 min at 37° C. Non-specific binding sites were blocked for 30 min at room temperature with TNB blocking buffer (NEN Life Sciences, Boston, Mass.). Primary CD31 antiserum (Pharmingen) was added to the sections overnight at 4° C. Slides were washed twice with phosphate buffered saline and secondary goat anti-mouse IgG antibody (Vector Laboratories, Burlingame, Calif.) was then added for 30 min at room temperature. After again washing twice with PBS the slides were incubated with streptavidin alkaline phosphatase solution (1:100) (Perkin-Elmer Life Sciences, Boston, Mass.) for 30 min at room temperature followed by biotinyl tyramide amplification dilutent (1:50) (Perkin-Elmer Life Sciences) for 10 min. After repeat incubation with alkaline phosphatase solution (1:100), for 30 min at room temperature, the chromagen, Vector Novar substrate kit (Vector Laboratories) was added. Slides were lightly counterstained with hematoxylin for imaging.
Sections were taken from the abdominal wall, patch, and lesions at sacrifice on day 10. To quantitate vessel density, CD31 immunostained sections underwent digital image analysis using a Nikon Eclipse TE300 inverting photomicroscope with an attached Spot RT (Diagnostic Instruments Inc.) video camera linked to a personal computer. Images were imported directly to the image analysis program IP Lab (Scanalytics Inc., Fairfax, Va.). Sequential images were grabbed at 200× for the […] sections without overlapping. To calculate the volume fraction of stained regions, a color threshold was chosen for each image that distinguished between the stained areas and background. The proportion of the selected color was calculated as a percentage of total area and used as a measure of vessel density. Sections from 3 different mice for each of the study groups were examined and vascularization was scanned and quantified in 5 representative fields per section.

For data set [3], the system named is adhesions. Conditions: cited from earlier work.

`CS(=O)(=O)c1ccc(C2=C(c3ccccc3)C(=O)OC2)cc1` [rofecoxib]: in data set [1], the “intra-abdominal adhesion score (total, 0-16)” value is reported as 3.6+/−1.1 and the “decrease of intra-abdominal adhesion formation” value (“decrease” below) is on record as 91%. Besides, the “microvessel density of granulation tissue surrounding the silicone patch” value (“microvessel density” below) in data set [2] came to 7.9±0.6.

As for `COc1ccc2c(c1)c(CC(=O)O)c(C)n2C(=O)c1ccc(Cl)cc1` [indomethacin], the “intra-abdominal adhesion score (total, 0-16)” value in data set [1] was 7.3+/−1.7. For the same compound, the “microvessel density” value in data set [2] is 11.3±1.5.

With `Cc1ccc(-c2cc(C(F)(F)F)nn2-c2ccc(S(N)(=O)=O)cc2)cc1` [celecoxib], in data set [1], the “intra-abdominal adhesion score (total, 0-16)” value is 1.36+/−0.5; the “decrease” value stood at 74%; the “intra-abdominal adhesion score (total, 0-16), durability” value is recorded as 1.5+/−0.9. Also, in data set [2], the “microvessel density” value turned out to be 3.8±0.8.

For `CC(C)Cc1ccc(C(C)C(=O)O)cc1` (stereo not shown) [ibuprophen], in data set [1], the “intra-abdominal adhesion score (total, 0-16)” value is listed as 7.8+/−1.4. Besides, the “microvessel density” value in data set [2] stood at 9.9±1.1.

As for `CC(=O)Oc1ccccc1C(=O)O` [aspirin], the “macroscopic adhesion formation over the silicone patch (photograph)” value in data set [1] (10 days after laparotomy, cecal abrasions and silicone patch placement, FIG. 1) is listed as “dense adhesion formation over the silicone patch”. Besides, in data set [1], the “intra-abdominal adhesion score (total, 0-16)” value is on record as 13.8+/−0.4; the “decrease” value is reported as “no effect”; the “intra-abdominal adhesion score (total, 0-16), durability” value is on record as 12.2+/−1.2. Further, the “microvessel density” value in data set [2] came to 13.3±1.0.

Consider `CO[C@@H]1[C@H](OC(=O)NC(=O)CCl)CC[C@]2(CO2)[C@H]1[C@@]1(C)O[C@@H]1CC=C(C)C` [TNP-470], for which, in data set [3] (literature), the side-effects entry is “absence of healing of abdominal wounds”. Further, in data set [3] (murine model (Chiang 2001)), the inhibition of adhesions result was “inhibit adhesions”.

For `COc1ccc2cc([C@H](C)C(=O)O)ccc2c1` [naproxen], the “intra-abdominal adhesion score (total, 0-16)” value in data set [1] is recorded as 8.4+/−2.2.
